US10294202B2, “Pyrrolidinones as herbicides” (FMC Corporation, priority 2013, dated 2019)

Tests used:
[1] = system: bermudagrass; assay: Test C pre-/postemergence herbicide test; assay type: in vivo, Cynodon dactylon; conditions: Preemergence
In short: (§1)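 Two application timings ran in parallel with identically formulated test chemicals (non-phytotoxic solvent, surfactant included): spray on seeded loam–sand soil, and spray on emerged plants 2 to 18 cm high. Evaluation at 13 to 15 days compared each species with controls, rated from 0 up to 100.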

[2] = system: soybean; assay: Test E preemergence herbicide test; assay type: in vivo, Glycine max; set-up: key: 0 = no effect, 100 = complete control
Text: Seeds of plant species selected from corn (Zea mays), soybean (Glycine max), velvetleaf (Abutilon theophrasti), lambsquarters (Chenopodium album), wild poinsettia (Euphorbia heterophylla), pigweed, palmer (palmer pigweed, Amaranthus palmeri), waterhemp (common waterhemp, Amaranthus rudis), surinam grass (Brachiaria decumbens), crabgrass, large (large crabgrass, Digitaria sanguinalis), crabgrass, Brazil (Brazilian crabgrass, Digitaria horizontalis), panicum, fall (fall panicum, Panicum dichotomiflorum), foxtail, giant (giant foxtail, Setaria faberii), foxtail, green (green foxtail, Setaria viridis), goosegrass (Eleusine indica), johnsongrass (Sorghum halepense), ragweed (common ragweed, Ambrosia elatior), barnyardgrass (Echinochloa crus-galli), sandbur (southern sandbur, Cenchrus echinatus), arrowleaf […] rhombifolia), ryegrass, Italian (Italian ryegrass, Lolium multiflorum), dayflower, VA (Virginia dayflower, Commelina virginica), field bindweed (Convolvulus arvensis), morningglory (Ipomoea coccinea), nightshade (eastern black nightshade, Solanum ptycanthum), kochia (Kochia scoparia), nutsedge, yellow (yellow nutsedge, Cyperus esculentus), cocklebur (common cocklebur, Xanthium strumarium), smartweed (ladysthumb smartweed, Polygonum Persicaria) and beggarticks (hairy beggarticks, Bidens pilosa), were planted into a silt loam soil and treated preemergence with test chemicals formulated in a non-phytotoxic solvent mixture which included a surfactant. Treated plants and controls were maintained in a greenhouse for 21 days, after which time all species were compared to controls and visually evaluated. Plant response ratings, summarized in Table E, are based on a scale of 0 to 100 where 0 is no effect and 100 is complete control. A dash (-) response means no test result.

[3] = system: beggarticks; assay: Test E preemergence herbicide test; assay type: in vivo, Bidens pilosa; set-up: key: 0 = no effect, 100 = complete control
In short: (§2)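 Greenhouse preemergence test: seeds sown into silt loam received compound in a non-phytotoxic solvent mixture with surfactant. Plants grew 21 days before visual comparison with controls. Scores run from 0, no effect, to 100, complete control.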

[4] = system: goosegrass; assay: Test C pre-/postemergence herbicide test; assay type: in vivo, Eleusine indica; conditions: Preemergence
In short: as §1

[5] = system: field bindweed; assay: Test E preemergence herbicide test; assay type: in vivo, Convolvulus arvensis; set-up: key: 0 = no effect, 100 = complete control
In short: as §2

[6] = system: watergrass, late; assay: Test F flood (paddy) test; assay type: in vivo, Echinochloa oryzicola; conditions: 21 d, scale 0-100
In short: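 Compounds were applied directly to paddy water held 3 cm above silt loam soil, with rice and weeds at the 2.0–2.5-leaf stage, grown in a greenhouse at 30/27° C under a 16-h photoperiod. Visual ratings (0 no effect to 100 complete control) were made against untreated controls after 21 d.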

[7] = 125 g ai/ha, scale 0 to 100 (0 no effect, 100 complete control)
[8] = 31 g ai/ha, scale 0 to 100 (0 no effect, 100 complete control)

Row | Structure (SMILES) | Plant response rating, Soybean ([2]; 31 g ai/ha) | Plant response rating, Soybean ([2]; 62 g ai/ha) | Plant response rating, Soybean ([2]; 125 g ai/ha) | Plant response rating, Soybean ([2]; 250 g ai/ha) | Plant response rating, Beggarticks ([3]; 31 g ai/ha) | Plant response rating, Beggarticks ([3]; 62 g ai/ha) | Plant response rating, Beggarticks ([3]; 125 g ai/ha) | Plant response rating, Beggarticks ([3]; 250 g ai/ha) | Plant response rating, Field Bindweed ([5]; 31 g ai/ha) | Plant response rating, Field Bindweed ([5]; 62 g ai/ha) | Plant response rating, Field Bindweed ([5]; 125 g ai/ha) | Plant response rating, Field Bindweed ([5]; 250 g ai/ha) | Plant response rating, Watergrass, Late ([6]; 125 g ai/ha) | Plant response rating, Watergrass, Late ([6]; 250 g ai/ha) | Plant response rating, Watergrass, Late ([6]; 500 g ai/ha) | also measured
1 | O=C1NCC(c2ccc(Cl)c(Cl)c2)C1C(=O)Nc1ccccc1F (racemic) [Compound 14] | 0 | 0 | 0 | 0 | 0 | 0 | 0 | 0 | 0 | 0 | 0 | 0 | – | – | – | Plant response rating, Bermudagrass ([1]; 62 g ai/ha, scale 0 to 100): 90; Plant response rating, Bermudagrass [1, 7]: 95; Bermudagrass plant response rating [1, 8]: 75; Plant response rating, Bermudagrass ([1]; 250 g ai/ha, scale 0 to 100 (0 no effect, 100 complete control)): 95; Plant response rating, Soybean ([2]; 16 g ai/ha): 0; Plant response rating, Beggarticks ([3]; 16 g ai/ha): 0; Plant response rating, Goosegrass ([4]; 62 g ai/ha, scale 0 to 100): 0; Plant response rating, Goosegrass [4, 7]: 0; Goosegrass plant response rating [4, 8]: 0; Plant response rating, Field Bindweed ([5]; 16 g ai/ha): 0
2 | O=C1NC[C@H](c2cccc(C(F)(F)F)c2)[C@H]1C(=O)Nc1ccccc1F [Compound 204, (3R,4S)—N-(2-fluorophenyl)-2-oxo-4-[3-(trifluoromethyl)phenyl]-3-pyrrolidinecarboxamide] | 0 | 0 | 0 | – | 0 | 0 | 0 | 0 | 0 | 0 | 0 | 30 | 70 | 98 | 98 | –
3 | O=C1NC[C@H](c2cccc(C(F)(F)F)c2)[C@H]1C(=O)Nc1cccc(F)c1F [Compound 206] | 0 | 0 | 0 | 0 | 0 | 0 | 0 | 0 | 20 | 20 | 30 | 50 | 100 | 100 | 100 | Plant response rating, Watergrass, Late ([6]; 64 g ai/ha): 90
